# Laboratory results: US20170312334A1, “METHODS AND COMPOSITIONS FOR TREATING INFLAMMATORY DISORDERS” (ROGNE BIOSCIENCE INC., priority 2014, published 2017)
# Tests used:
# [1] = test system: NF-κB; test: NF-κB activation assay: camptothecin induced NF-κB nuclear binding; format: cell-based; conditions: camptothecin 10 μM to 10 nM
# Description: Treatment of the nuclear extract with the p65 antibody results in a significant decrease in NF-κB/DNA binding. As a negative control, cells are left inactivated and nuclear extracts are treated with the NF-κB consensus sequence, illustrating only a slight background level of NT-κB.
# Inhibition of camptothecin mediated activation of NF-κB by the agents disclosed herein is as follows: Induction of NF-κB activation can proceed via a wide range of signaling pathways (Delhase et al., Science 284: 309-313 (1999); Karin, Oncogene 18: 6867-6874 (1999)). Inhibition of NF-κB activation can proceed via the inhibition of many different pathways (Epinat and Gilmore, Oncogene 18: 6896-6909 (1999)). […]
# Human Jurkat leukemia T-cells (clone E6-1; Amer. Type Culture Collection, Rockville, Md.) are grown in RPMI-1640 Media (Gibco-BRL, Rockville, Md.) supplemented with 10% fetal bovine serum, penicillin (614 ng/mL), streptomycin (10 μg/mL) and HEPES buffer, pH 7.2 at 37° C., 5% CO2. […] The protein concentration of the extracts is determined according to the Method of Bradford (1976) with BioRad reagents. […] After electrophoresis the gel is analyzed using a phosphorimager (Biorad FX plus) for detection of the NF-κB-DNA binding.
# [2] = test system: RANTES; test: Inhibition of LPS/IFNγ-induced cytokine expression (RANTES); format: cell-based
# [3] = test system: TNFα; test: Inhibition of LPS/IFNγ-induced cytokine expression (TNFα); format: cell-based
# [4] = test system: RANTES; test: Newly synthesized RANTES in human macrophages (FIG. 18C); format: cell-based
# [5] = test system: imiquimod-induced dermal inflammation; test: Imiquimod-induced psoriasis-like skin inflammation model in mice; conditions: topically applied, in vivo, mice (FIG. 15)
# Description: Psoriasis is induced by imiquimod applied to the back and ears of the test animals. The initial signs of the disease are observed within 5-6 days as redness and the appearance of plaque type psoriasis, and the disease progresses onto the entire back of the animal.
# The study is carried out on female BALC/c mice, 9-10 weeks old at study initiation. […] The animals are divided into group 1 (naïve), group 2 (vehicle+IMQ), group 3 (C15 peptide test agent+IMQ) and group 4 (C15 peptide test agent+IMQ).
# The animals are examined for signs of psoriasis on study day 1. These scores served as a baseline for the psoriasis clinical score parameter. Starting from IMQ cream application on day 1, psoriasis responses are examined from day 5 until termination of the study.
# Psoriasis reactions (erythema and plaques) are scored and recorded. For plaques, a scale of 0-7 is used with 0 being normal and 7 being no fur with small red dots covering 50%-100% of the back. For erythema, a scale of 0-4 is used with 0 being normal and 4 being very marked. The clinical score is determined by summing the score of each section. The final psoriasis score is the sum of the erythema score and the plaques score.
# Right ear thickness is measured before psoriasis induction on study day 1 (baseline). […] Right ear thickness is then measured on study days 5, 8 and 10 (study termination). […]
# [6] = test system: NF-κB-regulated cytokines; test: Secretion of NF-κB-regulated cytokines by mouse macrophages (FIG. 18B); format: cell-based
# [7] = test system: NF-κB; test: Modulation of NF-κB activity compared with steroid (FIG. 17); format: cell-based; conditions: FIG. 17A/17B
molecule,measurement,setting,value
CC[C@@]1(O)C(=O)OCc2c1cc1n(c2=O)Cc2cc3ccccc3nc2-1 [camptothecin],NF-κB/DNA binding due to NF-κB activation,[1],significant amount of NF-κB/DNA binding
NNNNNNNNNN,Percent Inhibition of LPS/IFNγ-induced Cytokine Expression,[2],0%
same,Percent Inhibition of LPS/IFNγ-induced Cytokine Expression,[3],1%
AGEDPHSFYFPGQFA (listed as Homo sapiens) [human C15 peptide],reduction of newly synthesized RANTES,[4]; human macrophages (FIG. 18C),> 90%
same,potency relative to steroid (Dex),"[4]; human macrophages, RANTES (FIG. 18C)",10^6 time
same,imiquimod-induced dermal inflammation,[5],reduces imiquimod-induced dermal inflammation in vivo in a dose dependent manner
same,secretion of NF-κB-regulated cytokines,[6],reduced
same,NF-κB activity modulation relative to steroid,[7],modulates NF-κB activity more potently than steroid
